Measurements published in patent publication US20060183802A1, “Compositions and methods for treating amyotrophic lateral sclerosis (ALS)” (priority 2004, published 2006).
≈ marks a conversion by molar mass, not a printed value.

Assays:
[1] = tested on: SOD (wild type and A4V, G85R and G37R mutants); experiment: Copper/H2O2-induced oxidative aggregation of demetallated SOD after Cys-111 modification, monitored by light scattering; assay type: biochemical, human
Description: Unmodified SOD aggregation. SOD aggregation of SOD with an umodified Cys-111 residue was achieved by mixing 10 μM SOD with 0.8 mM copper sulfate (CuSO4) and 10 mM hydrogen peroxide (H2O2) in 20 mM Tris at 37° C. (pH 7.4). SOD aggregation of SOD modified at the Cys-111 residue.
Modified (Blocked […] Residue) aggregation. Treatment with iodoacetate and DTNB was carried out at 0.73 mg/ml demetallated SOD, 20 mM Tris, 20 mM phosphate with 10 mM modifying reagent in each at pH 7.4 and room temperature for one hour. In the case of DTNB treatment, both protein solution and the buffer were nitrogen fused prior to the reaction. Modified SOD samples were then dialyzed against 20 mM Tris buffer at pH 7.8 in room temperature. All of the modified SOD samples were prepared fresh just before inducing oxidation with copper (0.8 mM) and hydrogen peroxide (10 mM).
Kinetic Studies of modified and unmodified SOD aggregation. To monitor the kinetics of aggregation, the SOD solution was equilibrated in a quartz cuvette at 37° C. for 5 min within the sample chamber of a Hitachi F-4500 fluorimeter, at which point a freshly made solution containing the CuSO4, H2O2, and Tris was added. Using a small stir bar, the solution was mixed for 5 s, and the light scattered at a 90° angle was immediately monitored for 1 h at an excitation and emission wavelengths of 350 with 2.5 nm slit width. […]

[2] = according to MSDS; cited from earlier work
cardiomyopathic hamsters = details: dietary administration; cited from earlier work
SOD = experiment: In vitro oxidative aggregation of SOD in presence of orotate; assay type: biochemical, human
Text: The scope of the current study that led to the discovery of anti-aggregation effect of orotate was based the inventor's aggregation model involving the open dimers (FIG. 9) as discussed in Example 2.

mouse models = details: dietary administration; cited from earlier work
[3] = tested on: Cu/Zn superoxide dismutase; details: rat liver, dietary administration; cited from earlier work

O=C(O)c1cc(SSc2ccc([N+](=O)[O-])c(C(=O)O)c2)ccc1[N+](=O)[O-] [DTNB, dithionitro benzoic acid]
aggregation of SOD after treatment with sulfhydryl blocking reagent ([1]; 10 mM modifying reagent, pH 7.4, one hour, then 0.8 mM copper, 10 mM H2O2, WT, A4V, G85R, G37R apo SOD): inhibited

O=C(O)CI [iodoacetate]
aggregation of SOD after treatment with sulfhydryl blocking reagent ([1]; pH 7.4): inhibited

O=C(O)c1cc(=O)[nH]c(=O)[nH]1 [orotic acid]
solubility in water [2]: 7 mM (≈ 1090 µg/mL)
conditions of cardiomyopathic hamsters (cardiomyopathic hamsters): improve
anti-aggregation activity across SOD variants (SOD; different variants of SOD with different extent of dimer opening): different level of anti-aggregation activity in different variants of SOD
effect on in vitro oxidative aggregation of SOD (SOD; in vitro oxidative aggregation): inhibition of in vitro oxidative aggregation
memory and synaptic long-term potentiation (mouse models): improve memory and synaptic long-term potentiation
Cu/Zn superoxide dismutase mRNA level [3]: reduction
SOD activity [3]: corresponding reduction
